Earlier results as cited in US10159658B2, “Compositions comprising statins, biguanides and further agents for reducing cardiometabolic risk” (ELCELYX THERAPEUTICS, INC., priority 2011, dated 2018).

Tested on: atherosclerotic plaque volume
Settings: diabetics; PERISCOPE, Nissen et al. JAMA 2008

CCC1=C(C)CN(C(=O)NCCc2ccc(S(=O)(=O)NC(=O)N[C@H]3CC[C@H](C)CC3)cc2)C1=O [Glimepiride]
change of atherosclerotic plaque volume over time: 0.73%
